Results as given in PubChem BioAssay AID1963832 (Molecular Pharmacology Branch, DTP, NCI, 2024).
Values joined by “and” are separate entries in the source; they are usually repeats but may differ in a detail not shown here. Equal values may be shown once.

Tested on: 885724-159-R-J1-PDC complex spheroid viability
Test: Anticancer human tumor 885724-159-R-J1-PDC patient-derived pancreatic adenocarcinoma cell line growth inhibition [POLQ]
Details: for viability, T/C: stronger effect = lower value; active = viability on the fitted dose curve at most 10% of control; inactive = the rest
Procedure: Multicellular complex tumor spheroid response to Polymerase (POL) inhibitors (novobiocin, ART-558, RP6685) in combination with a variety of drugs and investigational agents in selected tumor cell lines
The POL inhibitors (novobiocin, ART-558, and RP6685) were evaluated both individually and in combination with standard of care and investigational anticancer small molecules within a complex spheroid model of solid tumors. . Complex spheroids include a stromal component modeled by human endothelial cells (HUVEC) and fibroblasts modeled by human mesenchymal stem cells (MSCs). The concentration ranges selected for each drug and investigational agent were based upon clinically achievable concentrations if the clinical Cmax of the agent was known.
Compounds. The drugs and investigational agents: novobiocin (NSC847541), ART-558 (NSC835418), RP-6685 (NSC848927), peposertib (NSC802822), ceralasertib (NSC780249), elimusertib (NSC800525), camonsertib (NSC841442), AZD-1390 (NSC803789), olaparib (NSC753686), talazoparib (NSC767125), rucaparib (NSC756644), sotorasib (NSC818433), MRTX-1133 (NSC836407), SN-38 (NSC673596), topotecan (NSC609699), epotoside (NSC141540), doxorubicin (NSC123127), gemcitabine (NSC613327), 5-fluorouracil (NSC19893), paclitaxel (NSC125973), vemurafenib (NSC761431), MSA-2 (NSC828583), SN-011 (NSC837082), adavosertib (NSC754352), prexasertib (NSC758257), carboplatin (NSC241240) and oxaliplatin (NSC266046), were obtained from the National Cancer Institute (NCI) Developmental Therapeutics Program Chemical Repository (21). The FDA-approved anticancer drug set is available from the Developmental Therapeutics Program at https://dtp.cancer.gov/organization/dscb/obtaining/. […] The stock solutions were prepared in dimethyl sulfoxide (DMSO, Sigma-Aldrich, St. Louis, MO, cat. D2650), except for the platinum compounds which were prepared in saline (Quality Biological, Gaithersburg, MD, cat. 114-055-101), at 800-fold the tested concentration and stored at -70 degrees C prior to their use. All drugs and investigational agents were tested over a range starting from a high concentration at or near the clinical Cmax and decreasing in half-log increments. If the clinical Cmax for an agent had not been determined, the highest concentration tested was 10 microM, except for SN-38, which was tested at a high concentration of 1 microM.
Cell Culture. All cells were maintained in an incubator at 37 degrees C and 5% CO2 with 95% humidity. The PDC lines were cultured according to standard operating procedures established by the NCI PDMR (https://pdmr.cancer.gov). Table 3 of the manuscript, lists the cell lines along with the number of the three cell types plated to form the mct-spheroids and media for tumor cell growth. After thawing, all PDC lines, except 997537-175-T-J1-PDC and 415267-285-R-J2-PDC, were cultured in Matrigel-coated flasks prepared with a working solution of 1X Ham's F-12 nutrient mix, without supplementation (Thermo Fisher Scientific, cat. 11765054), 100 U/mL penicillin-streptomycin (Thermo Fisher Scientific, cat. 15140122), and 2.5% Matrigel (Corning Inc., Corning, NY, cat. 354248) for the first three passages. The two PDC lines 997537-175-T-J1-PDC and 415267-285-R-J2-PDC were cultured on uncoated flasks. The 857933-349-R-J2-PDC line was cultured in 6C/Colon 1B media containing advanced DMEM/F-12 (Thermo Fisher Scientific, cat. 12634028), 10 mM HEPES (Thermo Fisher Scientific, cat. 15630080), 1X GlutaMAX supplement (Thermo Fisher Scientific, cat. 35050061), 0.1 mg/mL primocin (InvivoGen, San Diego, CA, cat. ant-pm-2), 10% defined fetal bovine serum, heat inactivated (HyClone Laboratories Inc., Logan, UT, cat. SH30070.03HI), 50% L-WRN conditioned media (ATCC, cat. CRL-3276), 1.25 mM N-Acetyl-L-cysteine (Sigma-Aldrich, cat. A9165), 10 mM nicotinamide (Sigma-Aldrich, cat. N0636), 1X B-27 supplement (Thermo Fisher Scientific, cat. 17504044), 1X N-2 supplement (Thermo Fisher Scientific, cat. […]
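Also: spheroids exposed to compounds for 7 days.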

CC1COCCN1c1cc(C2(S(C)(=N)=O)CC2)nc(-c2ccnc3[nH]ccc23)n1 (stereo not given) + Nc1ccc(C#CCN(C(=O)Cc2ncc(C(F)(F)F)cc2C(F)(F)F)c2ccc(F)cc2)nn1
6.07 µM: IC50 (curve of first compound, second compound 1 µM)
7.07 µM: IC50 (curve of first compound, second compound 0.1 µM)
inactive: viability, T/C (second compound 0.0316 µM, first compound 0.0316 µM) 87.3% | viability, T/C (second compound 0.0316 µM, first compound 0.1 µM) 89.6% | viability, T/C (second compound 0.0316 µM, first compound 0.316 µM) 90.4% | viability, T/C (second compound 0.0316 µM, first compound 1 µM) 75.9% | viability, T/C (second compound 0.0316 µM, first compound 3.16 µM) 55.7% | viability, T/C (second compound 0.0316 µM, first compound 10 µM) 50% | viability, T/C (second compound 0.1 µM, first compound 0.0316 µM) 104% | viability, T/C (second compound 0.1 µM, first compound 0.1 µM) 94.5% | viability, T/C (second compound 0.1 µM, first compound 0.316 µM) 94% | viability, T/C (second compound 0.1 µM, first compound 1 µM) 71.5% | viability, T/C (second compound 0.1 µM, first compound 3.16 µM) 57.8% | viability, T/C (second compound 0.1 µM, first compound 10 µM) 46.7% | viability, T/C (second compound 0.316 µM, first compound 0.0316 µM) 95.3% | viability, T/C (second compound 0.316 µM, first compound 0.1 µM) 97.2% | viability, T/C (second compound 0.316 µM, first compound 0.316 µM) 83.4% | viability, T/C (second compound 0.316 µM, first compound 1 µM) 63.4% | viability, T/C (second compound 0.316 µM, first compound 3.16 µM) 55.5% | viability, T/C (second compound 0.316 µM, first compound 10 µM) 53.2% | viability, T/C (second compound 1 µM, first compound 0.0316 µM) 95.3% | viability, T/C (second compound 1 µM, first compound 0.1 µM) 85.1% | viability, T/C (second compound 1 µM, first compound 0.316 µM) 87.8% | viability, T/C (second compound 1 µM, first compound 1 µM) 75.9% | viability, T/C (second compound 1 µM, first compound 3.16 µM) 55.8% | viability, T/C (second compound 1 µM, first compound 10 µM) 45.4% | viability, T/C (second compound 3.16 µM, first compound 0.0316 µM) 94.3% | viability, T/C (second compound 3.16 µM, first compound 0.1 µM) 88.6% | viability, T/C (second compound 3.16 µM, first compound 0.316 µM) 91.1% | viability, T/C (second compound 3.16 µM, first compound 1 µM) 69.9% | viability, T/C (second compound 3.16 µM, first compound 3.16 µM) 53.5% | viability, T/C (second compound 3.16 µM, first compound 10 µM) 48.4% | viability, T/C (second compound 10 µM, first compound 0.0316 µM) 95.6% | viability, T/C (second compound 10 µM, first compound 0.1 µM) 99.7% | viability, T/C (second compound 10 µM, first compound 0.316 µM) 94.7% | viability, T/C (second compound 10 µM, first compound 1 µM) 64.1% | viability, T/C (second compound 10 µM, first compound 3.16 µM) 57.8% | viability, T/C (second compound 10 µM, first compound 10 µM) 47%
8 µM: IC50 (curve of first compound, second compound 3.16 µM)
> 10 µM: IC50 (curve of first compound, second compound 0.0316 µM) | IC50 (curve of first compound, second compound 0.316 µM) | IC50 (curve of first compound, second compound 10 µM)

CNCc1ccc(-c2[nH]c3cc(F)cc4c3c2CCNC4=O)cc1
inactive: viability, T/C (compound 0.0316 µM) 109% and 96.8% and 102% | viability, T/C (compound 0.1 µM) 102% and 92.6% and 112% | viability, T/C (compound 0.316 µM) 88.9% and 91.8% and 107% | viability, T/C (compound 1 µM) 87.8% and 98.4% and 99.9% | viability, T/C (compound 3.16 µM) 89.9% and 93.1% and 107% | viability, T/C (compound 10 µM) 93% and 91% and 83.8%
> 10 µM: IC50 (curve of compound)

CCc1c2c(nc3ccc(O)cc13)-c1cc3c(c(=O)n1C2)COC(=O)[C@]3(O)CC
0.0554 µM and 0.0882 µM and 0.0655 µM: IC50 (curve of compound)
inactive: viability, T/C (compound 0.00316 µM) 76.2% and 80.4% and 69% | viability, T/C (compound 0.01 µM) 56% and 61.6% and 54.3% | viability, T/C (compound 0.0316 µM) 53.4% and 55% and 47.8% | viability, T/C (compound 0.1 µM) 47.3% and 54.5% and 50.5% | viability, T/C (compound 0.316 µM) 32% and 33.2% and 35.3%
active: viability, T/C (compound 1 µM) 5.28% and 5.56% and 4.88%

CC(C)n1c(=O)n(C)c2cnc3cc(F)c(-c4ccc(OCCCN5CCCCC5)nc4)cc3c21
> 10 µM: IC50 (curve of compound)
inactive: viability, T/C (compound 0.0316 µM) 94.5% and 97.2% and 114% | viability, T/C (compound 0.1 µM) 99.6% and 106% and 103% | viability, T/C (compound 0.316 µM) 98.5% and 110% and 99.5% | viability, T/C (compound 1 µM) 102% and 97.6% and 97.8% | viability, T/C (compound 3.16 µM) 93.2% and 94.7% and 105% | viability, T/C (compound 10 µM) 67% and 74.3% and 92.4%

CC[C@@]1(O)C(=O)OCc2c1cc1n(c2=O)Cc2cc3c(CN(C)C)c(O)ccc3nc2-1
> 0.1 µM: IC50 (curve of compound)
inactive: viability, T/C (compound 0.000316 µM) 97.3% and 109% and 93.8% | viability, T/C (compound 0.001 µM) 102% and 92% and 99% | viability, T/C (compound 0.00316 µM) 98.8% and 97.1% and 92.2% | viability, T/C (compound 0.01 µM) 89.7% and 86.8% and 86.5% | viability, T/C (compound 0.0316 µM) 80.4% and 78.2% and 74.8% | viability, T/C (compound 0.1 µM) 57.3% and 62.5% and 57.7%
